Data as given in patent publication US7220784B2, “Substituted stilbenes and their reactions” (priority 2000, dated 2007).
Like-named read-outs stand apart in the source and are kept apart here.

How the values were obtained:
K562 cells = test: In situ ultra violet irradiation of dosed K562 cells, IC50; type: cell-based, human; details: read-out: IC50 K562 (Nm)
Experimental: Previously, the isomerisation study had been performed ex situ, i.e. in a photochemical reactor. However, it was necessary to illustrate the potential of the process as a real therapy by repeating the isomerization in the presence of the caner cells i.e. in situ. […] Following irradiation, the cells were incubated in the normal way and the IC50 values were determined.
These consisted of i) exposing K562 cells only (i.e. cells which were not dosed with any potential drug candidate) to ultra violet light, ii) preventing K562 cells dosed with drug candidate from being exposed to ultra violet light, and iii) preventing K562 cells only (i.e. cells which were not dosed with any potential drug candidate) from being exposed to ultra violet light. […]

[1] = system: K562 human myelogeneous leukaemia cell line; test: Cytotoxicity/growth inhibition assay (MTT), K562; type: cell-based
Description: In addition to the cell lines described in this paper, other established human cell lines (K562, HUVEC, H460, BE, H529, and HT29) were used in the cytotoxicity/growth inhibition assay. • (1) Inhibition of tubulin assembly. The figure quoted is the concentration required to reduce assembly of tubulin by 50%. Tubulin assembly is monitored by light scatter/absorption at 350 nm.
(2) Competition for the colchicine binding site on tubulin. The figure quoted represents the % of ^3H-colchicine bound following co-incubation of test compound and ^3H-cochicine with isolated tubulin. Where ester pro-drugs were used the experiments were carried out in the presence and absence of porcine liver esterase. • (3) Cytotoxicity/growth inhibition assay. This was carried out by the MTT assay. • (4) Permeability (shape-change) assay in endothelial cells. […] This involved the diffusion of a fluorescently labelled dextran through a barrier of endothelial cells (HUVEC) grown to confluence on a porous membrane. The effect of agents to alter the shape of these cells results in an increase in the permeability of the cells to the dye. The figure represents the increase in permeability over control cultures when drug is added (30 minutes, 1 mM.). • (5) Experiments to study the anti-vascular effects of these agents were carried out as described previously by our group. […] The anti-vascular effects of the agents were monitored by either positron emission tomography (PET) or by histologogical examination following treatment of mice bearing T50:80 murine breast tumours, or H460 human lung tumours. • (6) Anti-tumour efficacy of agents was determined in xenografts of H460 human lung cancer. Animals (n=5) were trated either with 5 daily injections and tumour size measured with time following treatment. • (7) The pharmacokinetic profile of agents was determined in mice following injection with drug. Blood was taken at various times following treatment and analysed by HPLC with UV detection. […] (AND(P)H:quinone oxidoreductace, EC 1.6.99.2). DT-diaphorase is an enzyme over-expressed in a number of human tumours. […] This two-electron reducing enzyme can be used to selectively activate prodrugs within cancers which over-express the enzyme.

tubulin [2] = test: MA IC50 (Tables 12-26, abbreviation not defined); type: biochemical
tubulin [3] = test: CD IC50 (Tables 12-26, abbreviation not defined); type: binding
[4] = Homo sapiens, K562, MTT, read-out: K562 IC50
[5] = Homo sapiens, K562, Table 22, read-out: MTT (K582) IC50
[6] = Table 22, read-out: MTT (K582) IC50

Row | Compound | IC50 [1, 4] [nM] | IC50 [1, 5] [nM] | IC50 (tubulin [2]) [nM] | IC50 (tubulin [3]) [nM] | also measured
1 | 4-[2′-methoxy-4′-({2″-methoxy-5″-[(E)-2′″-3′″,4′″,5′″-trimethoxyphenyl)ethenyl]phenoxy}methyl)-5′-nitrophenoxy]butanoic acid(potassium salt) [Compound E-12] | – | – | – | – | IC50 (K562 cells; in situ UV 0 mins (Table 10)): > 50000 nM; IC50 (K562 cells; in situ UV 0.5 mins (Table 10)): 1010 nM; IC50 (K562 cells; in situ UV 1 mins (Table 10)): 410 nM; IC50 (K562 cells; in situ UV 1.5 mins (Table 10)): 300 nM; IC50 (K562 cells; in situ UV 2 mins (Table 10)): 160 nM; IC50 (K562 cells; in situ UV 3 mins (Table 10)): 50 nM; IC50 (K562 cells; in situ UV 4 mins (Table 10)): 58 nM; IC50 (K562 cells; in situ UV 5 mins (Table 10)): 46 nM; IC50 (K562 cells; in situ UV 7.5 mins (Table 10)): 22 nM; IC50 (K562 cells; in situ UV 10 mins (Table 10)): 16 nM; IC50 (K562 cells; in situ UV 12.5 mins (Table 10)): 12 nM; IC50 (K562 cells; in situ UV 15 mins (Table 10)): 10 nM; IC50 (K562 cells; in situ UV 17.5 mins (Table 10)): 9 nM; IC50 (K562 cells; in situ UV 20 mins (Table 10)): 8 nM
2 | COc1ccc(/C=C(/C)c2cc(OC)c(OC)c(OC)c2)cc1O[Si](C)(C)C(C)(C)C [Compound 17a, Z-(3′-t-butyldimethylsilyloxy-4′-methoxyphenyl)-2-(3″,4″,5″-trimethoxyphenyl)propene] | 200 | – | – | – | –
3 | COc1ccc(/C=C(\C)c2cc(OC)c(OC)c(OC)c2)cc1O[Si](C)(C)C(C)(C)C [Compound 17b, E-1-(3′-t-Butyldimethylsilyloxy-4′-methoxyphenyl)-2-(3″,4″,5″-trimethoxyphenyl)propene] | 6000 | – | – | – | –
4 | COc1ccc(/C=C(/C)c2cc(OC)c(OC)c(OC)c2)cc1 [Compound 23a, Z-1-(4′-Methoxyphenyl)-2-(3″,4″,5″-trimethoxyphenyl)propene] | 100 | – | – | – | –
5 | COc1ccc(/C=C(\C)c2cc(OC)c(OC)c(OC)c2)cc1 [Compound 23b, E-1-(4′-Methoxyphenyl)-2-(3″,4″,5″-trimethoxyphenyl)propene] | 790 | – | – | – | –
6 | COc1ccc(/C=C\c2cc(C)c(C)c(C)c2)cc1Oc1c(F)c(F)nc(F)c1F [Compound 27, (Z)-1-(3′,4′,5′-trimethylphenyl)-2-(3″-(2′″,3′″,5′″,6′″-tetrafluoropyridoxy)-4″-methoxyphenyl)ethene] | 9000 | – | – | – | –
7 | COc1ccc(C=C(C(=O)O)c2cc(OC)c(OC)c(OC)c2)cc1O [Compound 80] | – | > 50000 | > 10000 | > 25000 | –
8 | COC(=O)C(=Cc1ccc(OC)c(O)c1)c1cc(OC)c(OC)c(OC)c1 [Compound 81] | – | > 50000 | > 10000 | > 25000 | –
9 | COc1ccc(C=C(CO)c2cc(OC)c(OC)c(OC)c2)cc1O [Compound 82] | – | > 50000 | > 10000 | > 25000 | –
10 | COc1ccc(/C=C/c2cc(OC)c(OC)c(OC)c2)cc1Br [Compound 96] | – | – | > 10000 | > 25000 | IC50 ([1]; MTT, read-out: K562 IC50): 7830 nM
11 | COc1ccc(C=C(C)c2cc(OC)c(OC)c(OC)c2)cc1O[Si](C)(C)C(C)(C)C [Compound 208] | – | 200 | 1500 | > 25000 | –
12 | COc1ccc(/C=C(\C)c2cc(OC)c(OC)c(OC)c2)cc1O[Si](C)(C)C(C)(C)C [Compound 209] | – | – | > 10000 | > 25000 | IC50 [1, 6]: 6000 nM
13 | COc1ccc(/C=C(\C)c2cc(OC)c(OC)c(OC)c2)cc1O [Compound 211] | 700 | 700 | > 10000 | > 25000 | –
14 | COc1ccc(/C=C(\C)c2cc(OC)c(OC)c(OC)c2)cc1 [Compound 214] | – | – | > 10000 | > 25000 | IC50 [1, 6]: 800 nM
15 | CCC(=Cc1ccc(OC)c(O[Si](C)(C)C(C)(C)C)c1)c1cc(OC)c(OC)c(OC)c1 [Compound 217] | – | 500 | > 10000 | > 25000 | –
16 | CC/C(=C\c1ccc(OC)c(O[Si](C)(C)C(C)(C)C)c1)c1cc(OC)c(OC)c(OC)c1 [Compound 218] | – | – | > 10000 | > 25000 | IC50 [1, 6]: 3400 nM
17 | CC/C(=C\c1ccc(OC)c(O)c1)c1cc(OC)c(OC)c(OC)c1 [Compound 220] | – | – | > 10000 | > 25000 | IC50 [1, 6]: 4000 nM
18 | COc1ccc(/C=C\c2cc(OC)c(OC)c(O[Si](C)(C)C(C)(C)C)c2)cc1F [Compound 240] | 500 | – | > 10000 | > 25000 | –
19 | CCOc1cc(C=Cc2ccc(OC)c(Br)c2)cc(OCC)c1OCC [Compound 255] | – | – | > 10000 | > 25000 | –
